Key:
Assay type in all cases: cell-based
[1] = tested on: Klebsiella pneumoniae ATCC 10031; test: Microbial challenge, ARj.; conditions: contact time 30 seconds
From the text: (§1) Tables 1, 2, 3 and 4 (shown hereinafter) present the information obtained after conducting microbiological tests, also known as antimicrobial challenge, of M-DDO against various bacteria, showing its powerful anti-bacterial capacity. Moreover, Table 5 (shown hereinafter) presents the results of M-DDO against Propionibacterium acnes.
(§2) Various antimicrobial challenges have been studied in various institutions in order to evaluate the efficacy of M-DDO [Pirfenidone and M-DDO] against the most frequent microorganisms susceptible to develop resistance and against some microorganisms that may cause grater problem with regard to their eradication because of spore production.
(§3) The initial challenges are conducted with collection microorganisms universally requested for evidencing the efficacy of a product. […] Moreover, results of studies conducted by a company authorized by the authorities to perform challenge studies show results that are similar to the results obtained in the test conducted at UNAM, UAEM and in our laboratory (Grupo Medifarma)(Tables 1, 2 and 3).

[2] = tested on: Candida albicans ATCC 10231; test: Microbial challenge, ARj.; conditions: contact time 30 seconds
From the text: as §1, §2, §3

[3] = tested on: collection microorganisms; test: Microbial challenge studies at the Universidad Nacional Autónoma de México, summary
Procedure: as §2, §3

[4] = tested on: microorganisms isolated from hospitalized patients; test: Challenges with microorganisms isolated from hospitalized patients, summary; conditions: 30 second contact
Procedure: (§4) A second type of challenges were performed at the Universidad Autónoma del Estado de Morelos with microorganisms collected from hospitalized patients and thus said microorganisms had already been in contact with antimicrobial agents and could show resistance (Table 4).

Salmonella typhi CA-C001 = test: Microbial challenge, UNAM; conditions: contact time 30 seconds
From the text: as §1, §2, §3

Enterobacter faecalis = test: Challenge with microorganisms collected from hospitalized patients, Universidad Autónoma del Estado de Morelos; conditions: contact time 30 seconds; isolate from hospitalized patients; UAEM
Procedure: as §1, §4

Serratia marcenses = test: as above; conditions: contact time 30 seconds; isolate from hospitalized patients; UAEM
Procedure: as §1, §4

Salmonella enteritidis = test: as above; conditions: contact time 30 seconds; isolate from hospitalized patients; UAEM
Procedure: as §1, §4

Staphylococcus aureus = test: as above; conditions: contact time 30 seconds; isolate from hospitalized patients; UAEM
Procedure: as §1, §4

Enterobacter cloacae = test: as above; conditions: contact time 30 seconds; isolate from hospitalized patients; UAEM
Procedure: as §1, §4

Escherichia coli = test: as above; conditions: contact time 30 seconds; isolate from hospitalized patients; UAEM
Procedure: as §1, §4

Salmonella typhi = test: as above; conditions: contact time 30 seconds; isolate from hospitalized patients; UAEM
Procedure: as §1, §4

Propionibacterium acnes = test: Antimicrobial action of Pirfenidone and M-DDO gel
From the text: as §1

[5] = tested on: Klebsiella pneumoniae ATCC 10031; test: Microbial challenge, Grupo Medifarma; conditions: contact time 30 seconds
From the text: as §1, §2, §3

[6] = tested on: Candida albicans ATCC 10231; test: Microbial challenge, Grupo Medifarma; conditions: contact time 30 seconds
From the text: as §1, §2, §3

[7] = tested on: Proteus vulgaris ATCC 6380; test: Microbial challenge, Grupo Medifarma; conditions: contact time 30 seconds
From the text: as §1, §2, §3

[8] = tested on: Pseudomonas aeruginosa ATCC 9027; test: Microbial challenge, Grupo Medifarma; conditions: contact time 30 seconds
From the text: as §1, §2, §3

[9] = tested on: Escherichia coli ATCC 10536; test: Microbial challenge, Grupo Medifarma; conditions: contact time 30 seconds
From the text: as §1, §2, §3

[10] = tested on: Staphylococcus epidermidis ATCC 12228; test: Microbial challenge, Grupo Medifarma; conditions: contact time 30 seconds
From the text: as §1, §2, §3

[11] = tested on: Staphylococcus aureus ATCC 6538; test: Microbial challenge, Grupo Medifarma; conditions: contact time 30 seconds
From the text: as §1, §2, §3

[12] = tested on: Escherichia coli ATCC 11229; test: Microbial challenge, Grupo Medifarma; conditions: contact time 30 seconds
From the text: as §1, §2, §3

[1,2-diallyl-1-(5-methyl-tetrahydro-2H-pyran-2-yloxy)disulfonium]+6-[(benzyl, methyl, octylammonium) (hydroxymethylamin)(methylamin)]-tetrahydro-2H-pyran-3-oxy] chloride [M-DDO]
99.170%: reduction of the microbial charge (Salmonella typhi)
at least 99.17%: reduction of the microbial charge [4]
99.999%: elimination of the microbial charge [3] | elimination of the microbial charge (Salmonella typhi CA-C001) | reduction of the microbial charge (Staphylococcus aureus) | Percentage of reduction of bacteria viability (%) (Propionibacterium acnes; exposition time 30 sec) | Percentage of reduction of bacteria viability (%) (Propionibacterium acnes; exposition time 60 sec)
99.972%: reduction of the microbial charge (Enterobacter faecalis)
99.961%: reduction of the microbial charge (Escherichia coli)
100%: elimination of the microbial charge [1] | elimination of the microbial charge [2] | reduction of the microbial charge (Serratia marcenses) | reduction of the microbial charge (Salmonella enteritidis) | reduction of the microbial charge (Enterobacter cloacae) | Percentage of reduction of bacteria viability (%) (Propionibacterium acnes; exposition time 15 min) | elimination of microorganisms [5] | elimination of microorganisms [6] | elimination of microorganisms [7] | elimination of microorganisms [8] | elimination of microorganisms [9] | elimination of microorganisms [10] | elimination of microorganisms [11] | elimination of microorganisms [12]
